This is an account of results in patent US20030225279A1, “Stavudine Polymorphic Form 1 process” (priority 2000, published 2003).

Entries after “also recorded” stand apart in the source; their conditions may differ.

For series [1] the following is noted: solid state, relative to Forms II and III; cited from earlier work.
Series [2] can be described thus: Solubility in supercritical carbon dioxide. Type of series: physicochemical. As to conditions: supercritical carbon dioxide as antisolvent.

`Cc1cn([C@H]2C=C[C@@H](CO)O2)c(=O)[nH]c1=O` [Form I, 2′, 3′-didehydro-3′-deoxythymidine]: in series [1], the “thermodynamic stability / transformation to other polymorphic forms” value is “stable and shows no transformations to other polymorphic forms; also recorded: most thermodynamically stable form, with no tendency for solid state conversion to the other Forms”.

Consider `Cc1cn([C@H]2C=C[C@@H](CO)O2)c(=O)[nH]c1=O` [Stavudine, 2′, 3′-didehydro-3′-deoxythymidine], for which, in series [2], the “solubility in supercritical carbon dioxide” value is reported as “practically insoluble”.
